Reference: PubChem BioAssay (NCI)
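These data come from cells grown in 96-well plates and exposed to compound for 48 hours at five concentrations. TGI denotes the concentration required for complete inhibition of growth.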

How the values were obtained:
Assay in all cases: NCI-60 cell line screen, 48 h
NCI-H460 lung = test system: NCI-H460 lung
K-562 leukemia = test system: K-562 leukemia
NCI-H522 lung = test system: NCI-H522 lung
MDA-MB-231 breast = test system: MDA-MB-231 breast
MALME-3M melanoma = test system: MALME-3M melanoma
UACC-257 melanoma = test system: UACC-257 melanoma
CCRF-CEM leukemia = test system: CCRF-CEM leukemia
NCI-H226 lung = test system: NCI-H226 lung
MCF7 breast = test system: MCF7 breast
OVCAR-3 ovarian = test system: OVCAR-3 ovarian
NCI-H23 lung = test system: NCI-H23 lung
SF-539 CNS = test system: SF-539 CNS
SN12C renal = test system: SN12C renal
OVCAR-5 ovarian = test system: OVCAR-5 ovarian
SK-MEL-2 melanoma = test system: SK-MEL-2 melanoma
HOP-62 NSCLC = test system: HOP-62 NSCLC
U251 CNS = test system: U251 CNS
MOLT-4 leukemia = test system: MOLT-4 leukemia
LOX IMVI melanoma = test system: LOX IMVI melanoma
PC-3 prostate = test system: PC-3 prostate
HCT-15 colon = test system: HCT-15 colon
SF-268 CNS = test system: SF-268 CNS
DU-145 prostate = test system: DU-145 prostate
SNB-19 CNS = test system: SNB-19 CNS
SK-OV-3 ovarian = test system: SK-OV-3 ovarian
SR leukemia = test system: SR leukemia
CAKI-1 renal = test system: CAKI-1 renal
HOP-92 NSCLC = test system: HOP-92 NSCLC
SK-MEL-28 melanoma = test system: SK-MEL-28 melanoma
HCT-116 colon = test system: HCT-116 colon
MDA-N = test system: MDA-N
UO-31 renal = test system: UO-31 renal
786-0 renal = test system: 786-0 renal
M14 melanoma = test system: M14 melanoma
COLO 205 colon = test system: COLO 205 colon
UACC-62 melanoma = test system: UACC-62 melanoma
SW-620 colon = test system: SW-620 colon
ACHN renal = test system: ACHN renal
EKVX NSCLC = test system: EKVX NSCLC
SF-295 CNS = test system: SF-295 CNS
RXF 393 renal = test system: RXF 393 renal
RPMI-8226 leukemia = test system: RPMI-8226 leukemia
T-47D breast = test system: T-47D breast
A498 renal = test system: A498 renal
A549 NSCLC = test system: A549 NSCLC
MDA-MB-435 = test system: MDA-MB-435
HT29 colon = test system: HT29 colon
SK-MEL-5 melanoma = test system: SK-MEL-5 melanoma
HS 578T breast = test system: HS 578T breast
BT-549 breast = test system: BT-549 breast
TK-10 renal = test system: TK-10 renal
HL-60(TB) leukemia = test system: HL-60(TB) leukemia
HCC-2998 colon = test system: HCC-2998 colon
OVCAR-4 ovarian = test system: OVCAR-4 ovarian
KM12 colon = test system: KM12 colon
NCI/ADR-RES ovarian = test system: NCI/ADR-RES ovarian
IGROV1 ovarian = test system: IGROV1 ovarian
SNB-75 CNS = test system: SNB-75 CNS
OVCAR-8 ovarian = test system: OVCAR-8 ovarian

## CSc1n[nH]c(N)c1C(=O)Nc1ccc(C)cc1
NCI-H460 lung
  TGI: > 100 µM
K-562 leukemia
  TGI: > 100 µM
NCI-H522 lung
  TGI: > 100 µM
MDA-MB-231 breast
  TGI: > 100 µM
MALME-3M melanoma
  TGI: > 100 µM
UACC-257 melanoma
  TGI: > 100 µM
CCRF-CEM leukemia
  TGI: > 100 µM
NCI-H226 lung
  TGI: > 100 µM
MCF7 breast
  TGI: > 100 µM
OVCAR-3 ovarian
  TGI: > 100 µM
NCI-H23 lung
  TGI: > 100 µM
SF-539 CNS
  TGI: > 100 µM
SN12C renal
  TGI: > 100 µM
OVCAR-5 ovarian
  TGI: > 100 µM
SK-MEL-2 melanoma
  TGI: > 100 µM
HOP-62 NSCLC
  TGI: > 100 µM
U251 CNS
  TGI: > 100 µM
MOLT-4 leukemia
  TGI: > 100 µM
LOX IMVI melanoma
  TGI: > 100 µM
PC-3 prostate
  TGI: > 100 µM
HCT-15 colon
  TGI: > 100 µM
SF-268 CNS
  TGI: > 100 µM
DU-145 prostate
  TGI: > 100 µM
SNB-19 CNS
  TGI: > 100 µM
SK-OV-3 ovarian
  TGI: > 100 µM
SR leukemia
  TGI: > 100 µM
CAKI-1 renal
  TGI: > 100 µM
HOP-92 NSCLC
  TGI: 68.3 µM
SK-MEL-28 melanoma
  TGI: > 100 µM
HCT-116 colon
  TGI: > 100 µM
MDA-N
  TGI: > 100 µM
UO-31 renal
  TGI: > 100 µM
786-0 renal
  TGI: > 100 µM
M14 melanoma
  TGI: > 100 µM
COLO 205 colon
  TGI: > 100 µM
UACC-62 melanoma
  TGI: > 100 µM
SW-620 colon
  TGI: > 100 µM
ACHN renal
  TGI: > 100 µM
EKVX NSCLC
  TGI: > 100 µM
SF-295 CNS
  TGI: > 100 µM
RXF 393 renal
  TGI: > 100 µM
RPMI-8226 leukemia
  TGI: > 100 µM
T-47D breast
  TGI: 94.8 µM
A498 renal
  TGI: 82.7 µM
A549 NSCLC
  TGI: > 100 µM
MDA-MB-435
  TGI: > 100 µM
HT29 colon
  TGI: > 100 µM
SK-MEL-5 melanoma
  TGI: > 100 µM
HS 578T breast
  TGI: > 100 µM
BT-549 breast
  TGI: > 100 µM
TK-10 renal
  TGI: > 100 µM
HL-60(TB) leukemia
  TGI: > 100 µM
HCC-2998 colon
  TGI: > 100 µM
OVCAR-4 ovarian
  TGI: > 100 µM

## S=C1SCN(Cc2ccco2)CN1c1ccc(Br)cc1
NCI-H460 lung
  TGI: 28.5 µM
K-562 leukemia
  TGI: 15.9 µM
NCI-H522 lung
  TGI: 23.7 µM
MALME-3M melanoma
  TGI: 35.3 µM
UACC-257 melanoma
  TGI: 42.6 µM
CCRF-CEM leukemia
  TGI: 67.4 µM
NCI-H226 lung
  TGI: 69.1 µM
KM12 colon
  TGI: 31.7 µM
MCF7 breast
  TGI: 31.3 µM
OVCAR-3 ovarian
  TGI: 21.1 µM
NCI-H23 lung
  TGI: 29.2 µM
SF-539 CNS
  TGI: 36.2 µM
SN12C renal
  TGI: 66.4 µM
OVCAR-5 ovarian
  TGI: 34.5 µM
SK-MEL-2 melanoma
  TGI: 32 µM
HOP-62 NSCLC
  TGI: 51.9 µM
U251 CNS
  TGI: 57.9 µM
MOLT-4 leukemia
  TGI: 47.4 µM
LOX IMVI melanoma
  TGI: 13 µM
PC-3 prostate
  TGI: 37 µM
NCI/ADR-RES ovarian
  TGI: 77.6 µM
HCT-15 colon
  TGI: 26.9 µM
SF-268 CNS
  TGI: 40.7 µM
DU-145 prostate
  TGI: > 100 µM
SNB-19 CNS
  TGI: 72.2 µM
SK-OV-3 ovarian
  TGI: 73.2 µM
SR leukemia
  TGI: 31.4 µM
CAKI-1 renal
  TGI: 42.7 µM
HOP-92 NSCLC
  TGI: 60.7 µM
SK-MEL-28 melanoma
  TGI: 43.1 µM
HCT-116 colon
  TGI: 42.2 µM
MDA-N
  TGI: 94.8 µM
UO-31 renal
  TGI: 44.9 µM
786-0 renal
  TGI: 33 µM
M14 melanoma
  TGI: 29 µM
COLO 205 colon
  TGI: 32 µM
UACC-62 melanoma
  TGI: 15.2 µM
IGROV1 ovarian
  TGI: 45.7 µM
SW-620 colon
  TGI: 62.3 µM
ACHN renal
  TGI: 64.2 µM
SNB-75 CNS
  TGI: > 100 µM
EKVX NSCLC
  TGI: 64.6 µM
SF-295 CNS
  TGI: 28.7 µM
RXF 393 renal
  TGI: > 100 µM
RPMI-8226 leukemia
  TGI: 35.3 µM
T-47D breast
  TGI: > 100 µM
A498 renal
  TGI: 66.1 µM
A549 NSCLC
  TGI: 54.3 µM
MDA-MB-435
  TGI: 36 µM
OVCAR-8 ovarian
  TGI: 93.9 µM
HT29 colon
  TGI: 39.5 µM
SK-MEL-5 melanoma
  TGI: 24.5 µM
HS 578T breast
  TGI: > 100 µM
BT-549 breast
  TGI: 44 µM
TK-10 renal
  TGI: 65.9 µM
HL-60(TB) leukemia
  TGI: 45.8 µM
HCC-2998 colon
  TGI: 27.5 µM
OVCAR-4 ovarian
  TGI: 37.5 µM

## COc1cc(/C=C2\Sc3scc(-c4cccc([N+](=O)[O-])c4)[n+]3C2=O)cc(OC)c1OC
NCI-H460 lung
  TGI: 24.2 µM
K-562 leukemia
  TGI: > 100 µM
NCI-H522 lung
  TGI: 27.3 µM
MDA-MB-231 breast
  TGI: 25.2 µM
MALME-3M melanoma
  TGI: 28.4 µM
UACC-257 melanoma
  TGI: 25.2 µM
CCRF-CEM leukemia
  TGI: 90.6 µM
NCI-H226 lung
  TGI: 34.3 µM
KM12 colon
  TGI: 41.6 µM
MCF7 breast
  TGI: 13.7 µM
OVCAR-3 ovarian
  TGI: 44.8 µM
NCI-H23 lung
  TGI: 33.2 µM
SF-539 CNS
  TGI: 24.2 µM
SN12C renal
  TGI: 42.5 µM
OVCAR-5 ovarian
  TGI: 55.6 µM
SK-MEL-2 melanoma
  TGI: 39.8 µM
HOP-62 NSCLC
  TGI: 36.1 µM
U251 CNS
  TGI: 26.3 µM
MOLT-4 leukemia
  TGI: 11.8 µM
LOX IMVI melanoma
  TGI: 24.1 µM
PC-3 prostate
  TGI: 86.3 µM
NCI/ADR-RES ovarian
  TGI: > 100 µM
SF-268 CNS
  TGI: 42.1 µM
DU-145 prostate
  TGI: 30.2 µM
SNB-19 CNS
  TGI: 46.5 µM
SK-OV-3 ovarian
  TGI: 59.9 µM
SR leukemia
  TGI: 5.11 µM
CAKI-1 renal
  TGI: 17.8 µM
HOP-92 NSCLC
  TGI: 73.9 µM
SK-MEL-28 melanoma
  TGI: 34.8 µM
HCT-116 colon
  TGI: 26.4 µM
MDA-N
  TGI: 27.1 µM
UO-31 renal
  TGI: 19 µM
786-0 renal
  TGI: 22.2 µM
M14 melanoma
  TGI: 23.9 µM
COLO 205 colon
  TGI: 15.1 µM
UACC-62 melanoma
  TGI: 24.2 µM
IGROV1 ovarian
  TGI: 29.4 µM
SW-620 colon
  TGI: 23 µM
ACHN renal
  TGI: 28.1 µM
SNB-75 CNS
  TGI: 8.77 µM
EKVX NSCLC
  TGI: 26.5 µM
SF-295 CNS
  TGI: 39.5 µM
RXF 393 renal
  TGI: 26.9 µM
RPMI-8226 leukemia
  TGI: 22.7 µM
T-47D breast
  TGI: 25 µM
A498 renal
  TGI: > 100 µM
A549 NSCLC
  TGI: 54.3 µM
MDA-MB-435
  TGI: 25.2 µM
OVCAR-8 ovarian
  TGI: > 100 µM
HT29 colon
  TGI: 41.2 µM
SK-MEL-5 melanoma
  TGI: 17.8 µM
HS 578T breast
  TGI: 57.1 µM
TK-10 renal
  TGI: 22.6 µM
HL-60(TB) leukemia
  TGI: 82.1 µM
HCC-2998 colon
  TGI: 27.5 µM
OVCAR-4 ovarian
  TGI: 31.5 µM
